Laboratory results as given in US20210317112A1, “HETEROCYCLIC COMPOUNDS AS PESTICIDES” (Bayer Aktiengesellschaft, priority 2017, published 2021).
Like-named read-outs stand apart in the source and are kept apart here.

Assays:
Type in all cases: in vivo
[1] = test system: southern green stink bug (Nezara viridula); assay: whole plant or invertebrate; conditions: in Hordeum vulgare, 96 h, read-out: mortality in %
Procedure: Nezara viridula—Spray Test Solvent: 52.5 parts by weight of acetone • 7 parts by weight of dimethylformamide Emulsifier: alkylaryl polyglycolether
(§1) To produce a suitable preparation of active compound, 1 part by weight of active compound is mixed with the stated amount of solvent, and the concentrate is diluted with water, containing an emulsifier concentration of 1000 ppm, to the desired concentration. Ammonium salt and/or penetration enhancer in a dosage of 1000 ppm are added to the desired concentration if necessary.
(§2) Barley plants (Hordeum vulgare) infested with larvae of the southern green stink bug (Nezara viridula) are sprayed with a test solution containing the desired concentration of the active ingredient.
(§3) After 4 days mortality in % is determined. 100% means all the stink bugs have been killed; 0% means none of the stink bugs have been killed.

[2] = test system: two spotted spidermite (Tetranychus urticae); assay: whole plant or invertebrate; conditions: in Phaseolus vulgaris, foliar, 144 h, read-out: mortality in %
Procedure: Tetranychus urticae—Spray Test OP-Resistant Solvent: 78.0 parts by weight acetone • 1.5 parts by weight dimethylformamide Emulsifier: alkylarylpolyglycol ether
(§4) To produce a suitable preparation of active compound, 1 part by weight of active compound is mixed with the stated amount of solvents and is diluted with water, containing an emulsifier concentration of 1000 ppm, to the desired concentration. Further test concentrations are prepared by dilution with emulsifier containing water.
French bean (Phaseolus vulgaris) leaf disks infected with all instars of the two spotted spidermite (Tetranychus urticae), are sprayed with a preparation of the active ingredient of the desired concentration.
After 6 days mortality in % is determined. 100% means all spider mites have been killed and 0% means none of the spider mites have been killed.

[3] = test system: mustard beetle larvae (Phaedon cochleariae); assay: Phaedon cochleariae spray test; conditions: in Brassica rapa, foliar, 168 h, read-out: mortality in %
Procedure: Phaedon cochleariae—Spray Test Solvent: 78.0 parts by weight of acetone • • 1.5 parts by weight of dimethylformamide Emulsifier: alkylarylpolyglycol ether
as §4
Chinese cabbage (Brassica pekinensis) leaf disks are sprayed with a preparation of the active ingredient of the desired concentration. Once dry, the leaf disks are infested with mustard beetle larvae (Phaedon cochleariae).
After 7 days mortality in % is determined. 100% means all beetle larvae have been killed and 0% means none of the beetle larvae have been killed.

[4] = test system: brown planthopper (Nilaparvata lugens); assay: Nilaparvata lugens spray test (solvent 52.5 acetone / 7 DMF); conditions: 96 h, application rate 500 g/ha, rice plants, after 4 days
Procedure: Nilaparvata lugens—Spray Test Solvent: 52.5 parts by weight of acetone • 7 parts by weight of dimethylformamide Emulsifier: alkylaryl polyglycolether
as §1, with “solvents” for “solvent,”, “and” for “and the concentrate”, “concentration. Further test concentrations are prepared by dilution with emulsifier containing water.” for “concentration.”
Rice plants (Oryza sativa) are treated by being sprayed with the desired concentration of the active compound and are infested with larvae of the brown planthopper (Nilaparvata lugens).
(§5) After 4 days mortality in % is determined. 100% means all planthoppers have been killed and 0% means none of the planthoppers have been killed.

[5] = test system: brown planthopper (Nilaparvata lugens); assay: Nilaparvata lugens spray test (solvent 78.0 acetone / 1.5 DMF); conditions: 96 h, application rate 500 g/ha, rice plants, after 4 days
Procedure: Nilaparvata lugens—Spray Test Solvent: 78.0 parts by weight of acetone • • 1.5 parts by weight of dimethylformamide Emulsifier: alkylarylpolyglycol ether
as §4
Rice plants (Oryza sativa) are sprayed with a preparation of the active ingredient of the desired concentration and the plants are infested with the brown planthopper (Nilaparvata lugens).
as §5

[6] = test system: southern green stink bug (Nezara viridula); assay: whole plant or invertebrate; conditions: in Hordeum vulgare, 96 h, read-out: mortality in %; remark: listed apart in the source
Procedure: Nezara viridula—Spray Test Solvent: 78.0 parts by weight of acetone • • 1.5 parts by weight of dimethylformamide Emulsifier: alkylarylpolyglycol ether
as §4, with “solvent,” for “solvents”, “and the concentrate” for “and”
as §2, §3

[7] = test system: green peach aphid (Myzus persicae); assay: whole plant or invertebrate; conditions: po, 120 h, read-out: mortality in %
Procedure: Myzus persicae—Oral Test Solvent: 100 parts by weight acetone
To produce a suitable preparation of active compound, 1 part by weight of active compound is mixed with the stated amount of solvent, and the concentrate is diluted with water to the desired concentration. 50 μl compound solution is filled in microtiter plates and 150 μl IPL41 insect medium (33%+15% sugar) is added to obtain a total volume of 200 μper well. Afterwards the plates are sealed with parafilm through which a mixed population of the green peach aphid (Myzus persicae) can suck on the compound preparation.
(§6) After 5 days mortality in % is determined. 100% means all aphids have been killed and 0% means none of the aphids have been killed.

[8] = test system: green peach aphid (Myzus persicae); assay: Myzus persicae spray test; conditions: in Brassica rapa, foliar, 120 h, read-out: mortality in %
Procedure: Myzus persicae—spray test Solvent: 78.0 parts by weight acetone • 1.5 parts by weight dimethylformamide Emulsifier: alkylarylpolyglycol ether
as §4
Chinese cabbage (Brassica pekinensis) leaf disks infected with all instars of the green peach aphid (Myzus persicae), are sprayed with a preparation of the active ingredient of the desired concentration.
as §6

| SMILES | mortality at 100 g/ha [1] | mortality at 500 g/ha [1] | mortality at 500 g/ha [2] | mortality at 100 g/ha [3] | mortality at 500 g/ha [3] | mortality at 500 g/ha [4] | mortality at 500 g/ha [5] | mortality at 100 g/ha [2] | mortality at 500 g/ha [6] | mortality at 20 ppm [7] | mortality at 500 g/ha [8] |
| --- | --- | --- | --- | --- | --- | --- | --- | --- | --- | --- | --- |
| O=C(Nc1nc(-c2c(F)cccc2F)no1)c1cccnc1C(F)(F)F [Compound I-1-1, N-[3-(2,6-Difluorophenyl)-1,2,4-oxadiazol-5-yl]-2-(trifluoromethyl)nicotinamide] | 100% | 100% | 70% | 100% | 100% | 80% | – | – | – | – | – |
| O=C(Nc1nc(-c2ccccc2C(F)(F)F)no1)c1cccnc1C(F)(F)F [Compound I-1-8, 2-(trifluoromethyl)-N-{3-[2-(trifluoromethyl)phenyl]-1,2,4-oxadiazol-5-yl}nicotinamide] | – | – | 100% | – | 100% | – | 100% | 100% | 90% | – | – |
| O=C(Nc1nc(-c2c(F)ccc(Br)c2F)no1)c1cccnc1C(F)(F)F [Compound I-1-12, N-[3-(3-bromo-2,6-difluorophenyl)-1,2,4-oxadiazol-5-yl]-2-(trifluoromethyl)nicotinamide] | – | – | 100% | 100% | 83% | – | – | 100% | – | – | – |
| N#Cc1c(-c2c(F)cccc2F)nsc1NC(=O)c1cccnc1C(F)(F)F [Compound I-2-1, N-[4-Cyano-3-(2,6-difluorophenyl)-1,2-thiazol-5-yl]-2-(trifluoromethyl)nicotinamide] | 100% | 100% | – | – | 100% | – | – | – | 100% | 90% | – |
| N#Cc1c(-c2ccccc2Cl)nsc1NC(=O)c1cccnc1Cl [Compound I-2-6, 2-Chloro-N-[3-(2-chlorophenyl)-4-cyano-1,2-thiazol-5-yl]nicotinamide] | – | 100% | 70% | – | 83% | – | – | – | – | – | 100% |
| N#Cc1c(-c2ccccc2C(F)(F)F)nsc1NC(=O)c1cccnc1Cl [Compound I-2-7, 2-Chloro-N-{4-cyano-3-[2-(trifluoromethyl)phenyl]-1,2-thiazol-5-yl}nicotinamide] | – | 100% | 90% | – | 100% | – | – | 90% | – | – | – |
| N#Cc1sc(NC(=O)c2cccnc2C(F)(F)F)nc1-c1ccccc1C(F)(F)F [Compound I-3-2, N-{5-Cyano-4-[2-(trifluoromethyl)phenyl]-1,3-thiazol-2-yl}-2-(trifluoromethyl)nicotinamide] | 100% | 100% | 100% | 100% | 100% | 100% | – | 100% | – | – | – |
